Reference: patent publication US20260015322A1, “DELIVERY OF THERAPEUTIC ALKALOID COMPOUNDS” (priority 2022, published 2026)

Key:
[1] = Hydrolysis Assay - Condition 2 (DI Water); assay type: physicochemical; settings: 25° C., 0.5 mM
Experimental: 50 uL of compound (10 mM) in DMSO was diluted into 950 uL of DI water to a final concentration of 0.5 mM. The hydrolysis kinetics were conducted at 25° C. and measured by LCMS at a certain time interval.
(§1) The corresponding LCMS chromatogram were recorded and the conversions were calculated by integration of each peak.
(§2) • 1) LCMS spectra were obtained using Agilent 1200G1956A or SHIMADZU LCMS-2020. • Standard LCMS conditions were as follows (running time 1.55 minutes): • Acidic condition: Mobile Phase A: 0.0375% TFA in water (v/v). Mobile Phase B: 0.01875% TFA in acetonitrile (v/v); Column: Kinetex EVO C18 30*2.1 mm, 5 μm. • Basic condition: Mobile Phase A: 0.025% NH3·H2O in water (v/v). Mobile Phase B: Acetonitrile; Column: Kinetex EVO C18 2.1×30 mm, 5 μm. • 2) Conversion (%)=peak area 1/(peak area 1+peak area 2)*100%, peak area 1 is the integration of hydrolyzed product, peak area 2 is the integration of starting material.

[2] = Hydrolysis Assay - Condition 1 (SGF); assay type: physicochemical; settings: Condition 1: SGF with pepsin pH 1.5, 37° C., 0.5 mM
Experimental: 50 uL of compound (10 mM) in DMSO was diluted into 950 uL of Simulated Gastric Fluid (SGF) with pepsin (pH 1.5) to a final concentration of 0.5 mM. The hydrolysis kinetics were conducted at 37° C. and measured by LCMS at a certain time interval.
as §1, §2

[3] = Plasma Stability Assay (Example A2), human plasma; assay type: in vitro ADME; settings: 37° C., prodrug remaining
Experimental: (§3) Each test was carried out in duplicate for each time point; 0 min, 15 min, 30 min, 60 min, 120, 240 min. […]

[4] = Plasma Stability Assay (Example A2), mouse plasma; assay type: in vitro ADME; settings: Mouse Plasma, 37° C., prodrug remaining
Experimental: as §3

[5] = Plasma Stability Assay (Example A3), rat plasma; assay type: in vitro ADME; settings: 10 μM, 37° C., prodrug remaining
From the text: (§4) The data is represented in the table below.

[6] = Plasma Stability Assay (Example A3), human plasma; assay type: in vitro ADME; settings: 10 μM, 37° C., prodrug remaining
From the text: as §4

| Structure (SMILES) | Conversion (%) ([1]; 1 min) | Conversion (%) ([1]; 5 min) | Conversion (%) ([1]; 30 min) | Conversion (%) ([1]; 1 h) | Conversion (%) ([1]; 4 h) | Conversion (%) ([1]; 24 h) | Conversion (%) ([2]; 1 min) | Conversion (%) ([2]; 5 min) | Conversion (%) ([2]; 30 min) | Conversion (%) ([2]; 1 h) | Conversion (%) ([2]; 4 h) | Conversion (%) ([2]; 24 h) | Prodrug (%) ([3]; 0 min) | Prodrug (%) ([3]; 15 min) | Prodrug (%) ([3]; 30 min) | Prodrug (%) ([3]; 60 min) | Prodrug (%) ([3]; 120 min) | Prodrug (%) ([3]; 240 min) | Prodrug (%) ([4]; 0 min) | Prodrug (%) ([4]; 15 min) | further results |
| --- | --- | --- | --- | --- | --- | --- | --- | --- | --- | --- | --- | --- | --- | --- | --- | --- | --- | --- | --- | --- | --- |
| COc1ccc([C@@]23CCC(OC(=O)N(C)C)=C[C@@H]2N(C)CC3)cc1OC [Compound 324, [(3aS,7aS)-3a-(3,4-dimethoxyphenyl)-1-methyl-3,4,5,7a-tetrahydro-2H-indol-6-yl] N,N-dimethylcarbamate] | 0 | 0 | 0 | 0 | 0 | 0 | 0 | 0 | 0 | 0 | 0 | 0 | 100.0 | 98.2 | 98.7 | >99 | >99 | 96.5 | 100.0 | 97.4 | Prodrug (%) ([4]; 30 min): 94.4%; Prodrug (%) ([4]; 60 min): 94.9%; Prodrug (%) ([4]; 120 min): 92.6%; Prodrug (%) ([4]; 240 min): 88.9% |
| COc1ccc([C@@]23CCC(OP(=O)(Oc4ccccc4)Oc4ccccc4)=C[C@@H]2N(C)CC3)cc1OC [Compound 320, [(3aS,7aS)-3a-(3,4-dimethoxyphenyl)-1-methyl-3,4,5,7a-tetrahydro-2H-indol-6-yl]diphenyl phosphate] | 0 | 0 | 0 | 0 | 0 | 0 | 0 | 0 | 0 | 0 | 0 | 0 | 100 | 95.7 | 98.5 | 95.7 | 98.2 | 95.3 | 100 | 58.5 | Prodrug (%) ([4]; 30 min): 46.5%; Prodrug (%) ([4]; 60 min): 30.7%; Prodrug (%) ([4]; 120 min): 19.4%; Prodrug (%) ([4]; 240 min): 11.7% |
| COc1ccc([C@@]23CCC(OP(=O)(O)OCOC(=O)C(C)C)=C[C@@H]2N(C)CC3)cc1OC [Compound 408, [[(3aS,7aS)-3a-(3,4-dimethoxyphenyl)-1-methyl-3,4,5,7a-tetrahydro-2H-indol-6-yl]oxy-hydroxy-phosphoryl]oxymethyl 2-methylpropanoate] | – | – | – | – | – | – | – | – | – | – | – | – | – | – | – | – | – | – | – | – | Prodrug (%) ([5]; 0 min): 100.0%; Prodrug (%) ([5]; 10 min): 63.8%; Prodrug (%) ([5]; 30 min): 29.2%; Prodrug (%) ([5]; 60 min): 8.2%; Prodrug (%) ([5]; 120 min): 0.8%; Prodrug (%) ([5]; 240 min): 0.0%; Prodrug (%) ([6]; 0 min): 100.0%; Prodrug (%) ([6]; 10 min): 94.2%; Prodrug (%) ([6]; 30 min): 82.6%; Prodrug (%) ([6]; 60 min): 69.1%; Prodrug (%) ([6]; 120 min): 45.4%; Prodrug (%) ([6]; 240 min): 23.5% |
| COc1ccc([C@@]23CCC(OC(=O)N4CCN(C)CC4)=C[C@@H]2N(C)CC3)cc1OC [Compound 327, [(3aS,7aS)-3a-(3,4-dimethoxyphenyl)-1-methyl-3,4,5,7a-tetrahydro-2H-indol-6-yl]4-methylpiperazine-1-carboxylate] | 0 | 0 | 0 | 0 | 0 | 0 | 0 | 0 | 0 | 0 | 0 | 0 | 100 | >99 | 98.9 | >99 | >99 | 94.4 | 100 | >99 | Prodrug (%) ([4]; 30 min): >99%; Prodrug (%) ([4]; 60 min): >99%; Prodrug (%) ([4]; 120 min): >99%; Prodrug (%) ([4]; 240 min): >99% |
| COc1ccc([C@@]23CCC(OP(=O)(O)O)=C[C@@H]2N(C)CC3)cc1OC [Compound 359, [(3aS,7aS)-3a-(3,4-dimethoxyphenyl)-1-methyl-3,4,5,7a-tetrahydro-2H-indol-6-yl] dihydrogen phosphate] | – | – | – | – | – | – | – | – | – | – | – | – | 100 | 69.0 | 65.1 | 50.4 | 32.8 | 25.6 | 100 | >99 | Prodrug (%) ([4]; 30 min): 82.7%; Prodrug (%) ([4]; 60 min): 79.0%; Prodrug (%) ([4]; 120 min): 50.7%; Prodrug (%) ([4]; 240 min): 59.1% |
| COc1ccc([C@@]23CCC(OP(=O)(OCc4ccccc4)OCc4ccccc4)=C[C@@H]2N(C)CC3)cc1OC [Compound 319, [(3aS,7aS)-3a-(3,4-dimethoxyphenyl)-1-methyl-3,4,5,7a-tetrahydro-2H-indol-6-yl] dibenzyl phosphate] | 2 | 4 | 5 | 10 | 20 | 59 | 2 | 5 | 25 | 26 | 60 | 61 | – | – | – | – | – | – | – | – | – |
| CCN(C)C(=O)OC1=C[C@@H]2N(C)CC[C@]2(c2ccc(OC)c(OC)c2)CC1 [Compound 326, [(3aS,7aS)-3a-(3,4-dimethoxyphenyl)-1-methyl-3,4,5,7a-tetrahydro-2H-indol-6-yl]N-ethyl-N-methyl-carbamate] | 0 | 0 | 0 | 0 | 0 | 0 | 0 | 0 | 0 | 0 | 0 | 0 | 100.0 | 98.2 | 99.9 | 98.4 | >99 | 93.9 | 100.0 | >99 | Prodrug (%) ([4]; 30 min): 96.6%; Prodrug (%) ([4]; 60 min): >99%; Prodrug (%) ([4]; 120 min): >99%; Prodrug (%) ([4]; 240 min): 98.5% |
